Experimental findings from patent US7713994B2 (Wyeth LLC, priority 2005, dated 2010) are described below.

The subject of data set [1] is BT474. Put plainly: Cytotoxicity assay (SRB), BT474. The data set is classed as cell-based. The conditions noted are these: Homo sapiens, BT-474, 144 h, BT474 cells, SRB, 6 days; read-out: In Vitro Cellular Activity IC50 BT474. In short, it runs like this:
(§1)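 Cells grown in RPMI 1640 with 5% FBS were treated with compound for three days (HCT-116, LoVo, MCF-7) or six days (BT474). Viable cell mass was quantified by sulforhodamine B staining of TCA-fixed protein and read at 540 nm.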

Data set [2] addresses T1, cyclin E/CDK2 enzyme (Homo sapiens, UniProt P24941).
T1 construct: made in house; host or cells: Sf9 insect cells, recombinant baculovirus
Put plainly: CDK2 ELISA kinase assay (phospho-Rb ser 795 detection). In kind it is biochemical. The conditions noted are these: In Vitro Enzyme Assays, read-out: CDK2 IC50. The method, boiled down:
(§2)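 GST-Rb C-terminal fragment coated on wells; kinase reaction: 200 μM ATP, 0.5 mg/ml BSA, HEPES pH 7.5, 10 mM MgCl2, baculovirus/Sf9 cyclin-CDK, 30° C, 1 h. Readout anti-phospho-Rb Ser795, HRP, TMB, A450. Test compound 10 ug/ml final.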

Data set [3] addresses T2, cyclin B/CDK1 enzyme (Homo sapiens, UniProt P06493).
T2 construct: purchased New England BioLabs; host or cells: Sf9 insect cells, recombinant baculovirus
Put plainly: CDK1 ELISA kinase assay (phospho-Rb ser 795 detection). The data set is classed as biochemical. The conditions noted are these: In Vitro Enzyme Assays, read-out: CDK1 IC50. In short, it runs like this: as §2
(In general: An ELISA detects its analyte on a solid surface through an enzyme-linked reagent.)

The test system of data set [4] is LoVo. Put plainly: Cytotoxicity assay (SRB), LoVo. In kind it is cell-based. The conditions noted are these: Homo sapiens, LoVo, 72 h, LoVo cells, SRB, three days; read-out: In Vitro Cellular Activity IC50 LOVO. In short, it runs like this: as §1
The target of data set [5] is T3, cyclin D1/cdk 4 enzyme (Homo sapiens, UniProt P11802).
T3 construct: made in house; host or cells: Sf9 insect cells, recombinant baculovirus
Put plainly: CDK4 ELISA kinase assay (phospho-Rb ser 795 detection). In kind it is biochemical. The settings on record: In Vitro Enzyme Assays, 200 μM ATP, read-out: CDK4 IC50. In short, it runs like this:
as §2

Data set [6] deals with MCF-7. Put plainly: Cytotoxicity assay (SRB), MCF-7. In kind it is cell-based. The conditions noted are these: Homo sapiens, MCF7, 72 h, MCF-7 cells, SRB, three days; read-out: In Vitro Cellular Activity IC50 MCF-7. The method, boiled down: as §1
In data set [7] the test system is HCT-116. Put plainly: Cytotoxicity assay (SRB), HCT-116. The conditions noted are these: Homo sapiens, HCT-116, 72 h, HCT116 cells, SRB, three days; read-out: In Vitro Cellular Activity IC50 HCT116. The data set is classed as cell-based. In short, it runs like this:
as §1

T2 sequence (P06493 whole entry): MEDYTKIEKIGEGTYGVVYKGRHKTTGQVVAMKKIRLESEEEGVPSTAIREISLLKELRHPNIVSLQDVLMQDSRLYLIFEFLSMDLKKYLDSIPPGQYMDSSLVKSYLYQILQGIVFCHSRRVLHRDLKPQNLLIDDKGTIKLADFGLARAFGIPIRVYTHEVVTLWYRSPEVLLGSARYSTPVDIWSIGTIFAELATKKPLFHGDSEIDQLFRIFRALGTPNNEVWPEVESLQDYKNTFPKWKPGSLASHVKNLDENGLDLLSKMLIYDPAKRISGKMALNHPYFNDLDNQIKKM
T2 sequence (P14635 whole entry partner): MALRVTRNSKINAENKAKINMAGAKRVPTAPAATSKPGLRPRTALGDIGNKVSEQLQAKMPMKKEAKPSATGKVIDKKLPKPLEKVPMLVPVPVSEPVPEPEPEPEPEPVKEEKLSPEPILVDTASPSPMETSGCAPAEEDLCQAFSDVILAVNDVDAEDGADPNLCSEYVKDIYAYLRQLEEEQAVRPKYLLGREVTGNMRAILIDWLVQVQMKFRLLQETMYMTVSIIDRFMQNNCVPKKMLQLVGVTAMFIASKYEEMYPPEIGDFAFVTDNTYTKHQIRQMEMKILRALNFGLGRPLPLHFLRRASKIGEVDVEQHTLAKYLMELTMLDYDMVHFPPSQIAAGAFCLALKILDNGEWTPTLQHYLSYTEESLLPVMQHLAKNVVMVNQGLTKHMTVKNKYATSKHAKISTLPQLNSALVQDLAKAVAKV
T3 sequence (P11802 whole entry, species assumed): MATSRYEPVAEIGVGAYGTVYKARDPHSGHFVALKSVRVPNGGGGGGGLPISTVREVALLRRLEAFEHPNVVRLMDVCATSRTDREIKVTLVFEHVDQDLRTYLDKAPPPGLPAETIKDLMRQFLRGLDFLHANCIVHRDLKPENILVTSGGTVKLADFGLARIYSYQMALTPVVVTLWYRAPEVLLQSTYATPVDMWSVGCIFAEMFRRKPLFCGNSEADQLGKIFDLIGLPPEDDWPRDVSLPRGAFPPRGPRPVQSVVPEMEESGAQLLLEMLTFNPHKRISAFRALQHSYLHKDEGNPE
T3 sequence (P24385 whole entry partner, species assumed): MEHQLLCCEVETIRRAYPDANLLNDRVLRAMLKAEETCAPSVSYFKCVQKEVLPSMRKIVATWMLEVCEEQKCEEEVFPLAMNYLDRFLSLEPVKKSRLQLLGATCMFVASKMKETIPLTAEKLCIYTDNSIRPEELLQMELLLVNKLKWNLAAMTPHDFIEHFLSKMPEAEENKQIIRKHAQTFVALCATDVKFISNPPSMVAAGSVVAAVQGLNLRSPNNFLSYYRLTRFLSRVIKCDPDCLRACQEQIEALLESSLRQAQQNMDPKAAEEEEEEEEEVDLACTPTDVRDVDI

For orientation: IC50 means the concentration at which inhibition is half-maximal. In general, melting point refers to the temperature of the solid-liquid transition. Compound `CN1CCN(NC(=O)Nc2ccc(N/C=C3\C(=O)NC(=O)c4ccc(Br)cc43)cc2)CC1` [Example 217, N-(4-{[(Z)-(6-Bromo-1,3-dioxo-2,3-dihydroisoquinolin-4(1H)-′ylidene)methyl]amino}phenyl)-N′-(4-methylpiperazin-1-yl)urea] had a melting point of 270 to 271 °C. The IC50 in data set [1] amounted to 3.3 µM. The IC50 in data set [2] was more than 50 µM. In data set [3], the IC50 was found to be 31.7 µM. Also, in data set [4], the IC50 came out at 4.8 µM. Moreover, the 50% inhibitory concentration (IC50) in data set [5] is 13.9 µM. In addition, the IC50 in data set [6] was 7.4 µM. In data set [7], the IC50 was found to be 2.6 µM.

The compound `O=C1NC(=O)c2ccc(Br)cc2/C1=C/NCc1ccc(NC(=O)C(F)(F)F)c(O)c1` [Example 218, N-[4-({[(Z)-(6-Bromo-1,3-dioxo-2,3-dihydroisoquinolin-4(1H)-′ylidene)methyl]amino}methyl)-2-hydroxyphenyl]-2,2,2-trifluoroacetamide] had a melting point of 278 to 279 °C. Moreover, the IC50 in data set [1] came out at 2.6 µM. Further, the IC50 in data set [2] was more than 50 µM. The IC50 in data set [3] was more than 50 µM. Besides, the IC50 in data set [4] was found to be 4.5 µM. In addition, in data set [5], the IC50 amounted to 0.15 µM. Besides, the IC50 in data set [6] amounted to 19 µM. In addition, the IC50 in data set [7] was 3.3 µM.

`O=C1NC(=O)c2ccc(Br)cc2/C1=C/NCc1ccc(OCC2CC2)c(O)c1` [Example 219, (4Z)-6-Bromo-4-({[4-(cyclopropylmethoxy)-3-′hydroxybenzyl]amino}methylene)isoquinoline-1,3(2H,4H)-dione] displayed a melting point of 210 to 211 °C. For the same compound, in data set [1], the concentration for half-maximal inhibition (IC50) worked out at 1.9 µM. Also, in data set [2], the IC50 is more than 50 µM. Also, in data set [3], the IC50 is more than 50 µM. Further, the IC50 in data set [4] is 6.9 µM. Also, in data set [5], the IC50 was 0.27 µM. Besides, in data set [6], the IC50 is 32 µM. Besides, the IC50 in data set [7] was found to be 2.8 µM.

`CN1CCN(c2ccc(N/C=C3\C(=O)N(CO)C(=O)c4ccc(Br)cc43)cc2)CC1` [Example 220, (4Z)-6-Bromo-2-(hydroxymethyl)-4-({[4-(4-methylpiperazin-1-yl)phenyl]amino}methylene)isoquinoline-1,3(2H,4H)-dione] yielded a melting point of 141 to 142 °C. For the same compound, the IC50 in data set [1] amounted to 3.3 µM. In data set [2], the IC50 is more than 50 µM. Besides, the IC50 in data set [3] was more than 50 µM. For the same compound, in data set [4], the half-inhibitory concentration (IC50) is 3.8 µM. Also, the IC50 in data set [5] was 3.3 µM. The IC50 in data set [6] was determined as 2.4 µM. Besides, the half-maximal inhibitory concentration (IC50) in data set [7] is 3.2 µM.

Consider `Cc1ccc(C)n1-c1ccc2c(c1)/C(=C/Nc1ccc(N3CCN(C)CC3)cc1)C(=O)NC2=O` [Example 226, (4Z)-6-(2,5-Dimethyl-1H-pyrrol-1-yl)-4-({[4-(4-methylpiperazin-1-′yl)phenyl]amino}methylene)isoquinoline-1,3(2H,4H)-dione], for which the melting point lay within 264 to 265 °C. Moreover, the IC50 in data set [1] was determined as 3.3 µM. Further, the IC50 in data set [2] was 2.4 µM. Besides, the IC50 in data set [3] is more than 50 µM. In data set [4], the half-maximal inhibitory concentration (IC50) turned out to be 4.4 µM. Besides, the IC50 in data set [5] worked out at 0.4 µM. Besides, in data set [6], the IC50 came to 5.2 µM. Besides, the IC50 in data set [7] came out at 2.4 µM.

`CCCOc1ccc(CN/C=C2\C(=O)N(O)C(=O)c3ccccc32)cc1O` [Example 230, 2-Hydroxy-4-[(3-hydroxy-4-propoxy-benzylamino)-methylene]-4H-isoquinoline-1,3-dione] returned a melting point of 176 to 178 °C. The IC50 in data set [1] is 6.4 µM. Also, in data set [2], the concentration for half-maximal inhibition (IC50) was found to be 38 µM. The IC50 in data set [3] was more than 50 µM. Besides, in data set [4], the IC50 was 3.8 µM. Besides, the IC50 in data set [5] is 27.7 µM. The IC50 in data set [6] was 3.1 µM. Besides, the IC50 in data set [7] is 2.1 µM.

Compound `CN1CCN(c2ccc(N/C=C3\C(=O)NC(=O)c4ccc(I)cc43)cn2)CC1` [Example 237, (4Z)-6-Iodo-4-({[6-(4-methylpiperazin-1-yl)pyridin-3-′yl]amino}methylene)isoquinoline-1,3(2H,4H)-dione] gave a melting point of 189 to 190 °C. Further, the IC50 in data set [1] stood at 3.2 µM. Besides, the IC50 in data set [2] worked out at 22.6 µM. In addition, the IC50 in data set [3] worked out at 32.4 µM. Besides, the IC50 in data set [4] amounted to 7.4 µM. Moreover, the IC50 in data set [5] came to 0.44 µM. Moreover, the IC50 in data set [6] was 4 µM. Further, the IC50 in data set [7] was 2.6 µM.

Compound `CN1CCC(c2ccc(N/C=C3\C(=O)NC(=O)c4ccc(I)cc43)cc2)CC1` [Example 239, (4Z)-6-Iodo-4-({[4-(1-methylpiperidin-4-yl)phenyl]amino}methylene)isoquinoline-1,3(2H,4H)-dione] returned a melting point of 215 to 216 °C. Moreover, in data set [1], the IC50 turned out to be 7.9 µM. Further, the IC50 in data set [2] is 4.2 µM. The IC50 in data set [3] was more than 50 µM. Moreover, in data set [4], the IC50 amounted to 7.7 µM. For the same compound, the IC50 in data set [5] worked out at 0.31 µM. Moreover, the IC50 in data set [6] came out at 4 µM. In data set [7], the IC50 is 2.5 µM.

For `C[C@@H]1CN(c2ccc(N/C=C3\C(=O)NC(=O)c4ccc(Br)cc43)cc2)C[C@H](C)N1C` [Example 240, (4Z)-6-Bromo-4-[({4-[(3R,5S)-3,4,5-trimethylpiperazin-1-yl]phenyl}amino)methylene]-isoquinoline-1,3(2H,4H)-dione], the melting point fell in the range of 213 to 214 °C. Besides, in data set [1], the IC50 stood at 3.1 µM. The IC50 in data set [2] is more than 50 µM. The 50% inhibitory concentration (IC50) in data set [3] is more than 50 µM. For the same compound, in data set [4], the IC50 is 3.7 µM. Also, the IC50 in data set [5] came to 17.3 µM. In data set [6], the IC50 was determined as 2 µM. The IC50 in data set [7] is 2.7 µM.

As to `C[C@@H]1CN(c2ccc(N/C=C3\C(=O)NC(=O)c4ccc(-c5ccoc5)cc43)cc2)C[C@H](C)N1C` [Example 241, (4Z)-6-(3-Furyl)-4-[({4-[(3R,5S)-3,4,5-trimethylpiperazin-1-yl]phenyl}amino)-methylene]isoquinoline-1,3(2H,4H)-dione], the melting point was in the range of 204 to 205 °C. Besides, the IC50 in data set [1] was 1.2 µM. Further, in data set [2], the IC50 was more than 50 µM. Also, the IC50 in data set [3] is more than 50 µM. In addition, the IC50 in data set [4] was determined as 3.8 µM. Also, in data set [5], the IC50 came out at 0.45 µM. Besides, the concentration for half-maximal inhibition (IC50) in data set [6] was 1.3 µM. Moreover, in data set [7], the IC50 is 1.9 µM.

Regarding `CCCOc1ccc(CN/C=C2\C(=O)NC(=O)c3cc(OC)c(Br)cc32)cc1O` [Example 246, 6-Bromo-4-[(3-hydroxy-4-propoxy-benzylamino)-methylene]-7-methoxy-4H-isoquinoline-1,3-dione], the melting point is 212 to 214 °C (dec.). Moreover, the half-maximal inhibitory concentration (IC50) in data set [1] is 2 µM. Also, the IC50 in data set [2] was more than 50 µM. The half-maximal inhibitory concentration (IC50) in data set [3] was more than 50 µM. Also, in data set [4], the IC50 amounted to 37 µM. In data set [5], the IC50 turned out to be 28.3 µM. In addition, the IC50 in data set [6] is more than 50 µM. Besides, the half-maximal inhibitory concentration (IC50) in data set [7] was 22 µM.

Regarding `CN1CCN(c2ccc(N/C=C3\C(=O)NC(=O)c4ccc(Br)cc43)cn2)CC1` [Example 250, (4Z)-6-Bromo-4-({[6-(4-methylpiperazin-1-yl)pyridin-3-′yl]amino}methylene)isoquinoline-1,3(2H,4H)-dione], the melting point lay within 265 to 266 °C. In addition, the concentration for half-maximal inhibition (IC50) in data set [1] was 7.6 µM. Besides, in data set [2], the IC50 was more than 50 µM. Besides, in data set [3], the IC50 was more than 50 µM. Also, the IC50 in data set [4] was determined as 7.1 µM. The IC50 in data set [5] stood at 2.8 µM. Also, the IC50 in data set [6] is 1.6 µM. Besides, the IC50 in data set [7] came out at 6.2 µM.

As for `COc1cc2c(cc1-c1ccc(F)cc1)/C(=C/Nc1ccc(CN3CCCCC3)cc1)C(=O)NC2=O` [Example 253, 6-(4-Fluoro-phenyl)-7-methoxy-4-[(4-piperidin-1-ylmethyl-phenylamino)-methylene]-4H-isoquinoline-1,3-dione], the melting point fell in the range of 227 to 230 °C. Also, in data set [1], the IC50 came out at 2.8 µM. The IC50 in data set [2] was more than 50 µM. Further, the IC50 in data set [3] is more than 50 µM. Moreover, in data set [4], the IC50 worked out at 2.6 µM. The IC50 in data set [5] worked out at 2.9 µM. Further, in data set [6], the IC50 stood at 2 µM. Also, in data set [7], the IC50 amounted to 1.1 µM.

On to `COc1cc2c(cc1-c1ccoc1)/C(=C/Nc1ccc(N3CCN(C)CC3)cc1)C(=O)NC2=O` [Example 254, 6-Furan-3-yl-7-methoxy-4-{[4-(4-methyl-piperazin-1-yl)-phenylamino]-methylene}-4H-isoquinoline-1,3-dione], for which the melting point fell in the range of 198 to 220 °C. The IC50 in data set [1] came out at 2.1 µM. Moreover, the IC50 in data set [2] is more than 50 µM. In data set [3], the IC50 was more than 50 µM. For the same compound, in data set [4], the IC50 came to 4.8 µM. In addition, in data set [5], the IC50 was 7.4 µM. In data set [6], the IC50 turned out to be 2.4 µM. Also, the IC50 in data set [7] is 2 µM.
